Measurements reported in patent publication US8440830B2, “Tetrahydro-fused pyridines as histone deacetylase inhibitors” (4SC AG, priority 2007, dated 2013).
Counter-ions that a name gives are not always drawn.

Test system: A549 NSCLC cells
Assay: Cellular cytotoxicity assay (Alamar Blue), A549
Type: cell-based
Conditions: Homo sapiens, 72 h, upper end given as ≧100, read-out: IC50 (μM), cytotoxicity towards A549 NSCLC cells
Procedure, shortened: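 Cells were dosed 24 h after seeding with semi-log compound dilutions in quadruplicate, then incubated 72 h at 37 °C, 5% CO2. Viability read by Resazurin reduction (4 h, fluorescence 544/590 nm) relative to untreated 0.5% DMSO controls; IC50 by non-linear regression.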

SMILES | IC50
CCCCNC(=O)C(=O)N1CCc2nc(C(=O)Nc3cc(C(C)C)ccc3N)sc2C1 [Example 84, N-(2-amino-5-isopropylphenyl)-5-[(butylamino)(oxo)acetyl]-4,5,6,7-tetrahydro[1,3]thiazolo[5,4-c]pyridine-2-carboxamide] | ≥ 0.2 µM
CC(C)c1ccc(N)c(NC(=O)c2nc3c(s2)CN(C(=C[N+](=O)[O-])Nc2ccccc2)CC3)c1 [Example 145, N-(2-amino-5-isopropylphenyl)-5-[1-anilino-2-nitrovinyl]-4,5,6,7-tetrahydro[1,3]thiazolo[5,4-c]pyridine-2-carboxamide] | ≥ 0.2 µM
CN=C(Nc1ccccc1)N1CCc2nc(C(=O)Nc3ccccc3N)sc2C1 [Example 114, N-(2-aminophenyl)-5-[anilino(methylimino)methyl]-4,5,6,7-tetrahydro[1,3]thiazolo[5,4-c]pyridine-2-carboxamide. (Dihydrochloride)] | ≥ 0.2 µM
Cc1ccc(S(=O)(=O)N2CCc3nc(C(=O)Nc4cc(C(C)C)ccc4N)sc3C2)cc1 [Example 170, N-(2-amino-5-isopropylphenyl)-5-[(4-methylphenyl)sulfonyl]-4,5,6,7-tetrahydro[1,3]thiazolo[5,4-c]pyridine-2-carboxamide] | ≥ 0.2 µM
COc1ccc(N)c(NC(=O)c2nc3c(s2)CN(C(=Nc2ccccc2)NC#N)CC3)c1 [Example 123, N-(2-amino-5-methoxyphenyl)-5-[(cyanoamino)(phenylimino)methyl]-4,5,6,7-tetrahydro[1,3]thiazolo[5,4-c]pyridine-2-carboxamide] | ≥ 0.2 µM
COCC(=O)N1CCc2nc(C(=O)Nc3ccccc3N)sc2C1 [Example 177, N-(2-aminophenyl)-5-(methoxyacetyl)-4,5,6,7-tetrahydro[1,3]thiazolo[5,4-c]pyridine-2-carboxamide] | ≥ 0.2 µM
COc1ccc(N)c(NC(=O)c2nc3c(s2)CN(C(C)=Nc2ccc(OC)c(OC)c2)CC3)c1 [Example 131, N-(2-amino-5-methoxyphenyl)-5-[N-(3,4-dimethoxyphenyl)ethanimidoyl]-4,5,6,7-tetrahydro[1,3]thiazolo[5,4-c]pyridine-2-carboxamide] | ≥ 0.2 µM
Nc1ccccc1NC(=O)c1nc2c(s1)CN(C(=O)c1ccc(-c3ccccc3)cc1)CC2 [Example 88, N-(2-aminophenyl)-5-(biphenyl-4-ylcarbonyl)-4,5,6,7-tetrahydro[1,3]thiazolo[5,4-c]pyridine-2-carboxamide] | ≥ 0.2 µM
COc1ccc(N(C)C(=O)N2CCc3nc(C(=O)Nc4ccccc4N)sc3C2)cc1OC [Example 24, N^2-(2-aminophenyl)-N^5-(3,4-dimethoxyphenyl)-N^5-methyl-6,7-dihydro[1,3]-thiazolo[5,4-c]pyridine-2,5(4H)-dicarboxamide] | ≥ 0.2 µM
Nc1ccccc1NC(=O)c1nc2c(s1)CN(S(=O)(=O)c1cccc(OC(F)F)c1)CC2 [Example 165, N-(2-aminophenyl)-5-{[3-(difluoromethoxy)phenyl]sulfonyl}-4,5,6,7-tetrahydro[1,3]thiazolo[5,4-c]pyridine-2-carboxamide] | ≥ 0.2 µM
COC(=O)c1ccc(C(=O)N2CCc3nc(C(=O)Nc4ccccc4N)sc3C2)cc1 [Example 90, Methyl 4-({2-[(2-aminophenyl)carbamoyl]-6,7-dihydro[1,3]thiazolo[5,4-c]pyridin-5(4H)-yl}carbonyl)benzoate] | ≥ 0.2 µM
CC(=Nc1ccccc1)N1CCc2nc(C(=O)Nc3ccccc3N)sc2C1 [Example 126, N-(2-aminophenyl)-5-[N-phenylethanimidoyl]-4,5,6,7-tetrahydro[1,3]thiazolo[5,4-c]pyridine-2-carboxamide] | ≥ 0.2 µM
COc1ccc(NC(=C[N+](=O)[O-])N2CCc3nc(C(=O)Nc4cc(C(C)C)ccc4N)sc3C2)cc1 [Example 146, N-[2-amino-5-(1-methylethyl)phenyl]-5-{1-[(4-methoxyphenyl)amino]-2-nitroethenyl}-4,5,6,7-tetrahydro[1,3]thiazolo[5,4-c]pyridine-2-carboxamide] | ≥ 0.2 µM
Nc1ccccc1NC(=O)c1nc2c(s1)CN(C(=O)COc1ccc3ccccc3c1)CC2 [Example 175, N-(2-aminophenyl)-5-[(2-naphthyloxy)acetyl]-4,5,6,7-tetrahydro[1,3]thiazolo[5,4-c]pyridine-2-carboxamide] | ≥ 0.2 µM
Nc1ccccc1NC(=O)c1nc2c(s1)CN(C(=O)Nc1ccccc1OC(F)(F)F)CC2 [Example 8, N^2-(2-aminophenyl)-N5-[2-(trifluoromethoxy)phenyl]-6,7-dihydro[1,3]thiazolo[5,4-c]pyridine-2,5(4H)-dicarboxamide] | ≥ 0.2 µM
Nc1ccccc1NC(=O)c1nc2c(s1)CN(S(=O)(=O)c1cccc(C(F)(F)F)c1)CC2 [Example 162, N-(2-aminophenyl)-5-{[3-(trifluoromethyl)phenyl]sulfonyl}-4,5,6,7-tetrahydro[1,3]thiazolo[5,4-c]pyridine-2-carboxamide] | ≥ 0.2 µM

SMILES | IC50
CN(C)c1ccc(N(C)C(=O)N2CCc3nc(C(=O)Nc4ccccc4N)sc3C2)cc1 [Example 22, N^2-(2-aminophenyl)-N^5-[4-(dimethylamino)phenyl]-N^5-methyl-6,7-dihydro-[1,3]thiazolo[5,4-c]pyridine-2,5(4H)-dicarboxamide] | ≥ 0.2 µM
COCCN(C)C(=O)N1CCc2nc(C(=O)Nc3ccccc3N)sc2C1 [Example 20, N^2-(2-aminophenyl)-N^5-(2-methoxyethyl)-N^5-methyl-6,7-dihydro[1,3]thiazolo[5,4-c]pyridine-2,5 (41:1)-dicarboxamide] | ≥ 0.2 µM
Nc1ccccc1NC(=O)c1nc2c(s1)CN(C(=O)Nc1ccc(N3CCOCC3)nc1)CC2 [Example 34, N^2-(2-aminophenyl)-N^5-(6-morpholin-4-ylpyridin-3-yl)-6,7-dihydro[1,3]thiazolo[5,4-c]pyridine-2,5(4H)-dicarboxamide] | ≥ 0.2 µM
COc1ccc(N=C(C)N2CCc3nc(C(=O)Nc4ccccc4N)sc3C2)cc1OC [Example 127, N-(2-aminophenyl)-5-[N-(3,4-dimethoxyphenyl)ethanimidoyl]-4,5,6,7 tetrahydro[1,3]thiazolo[5,4-c]pyridine-2-carboxamide] | ≥ 0.2 µM
COC(=O)c1ccc(NC(=O)N2CCc3nc(C(=O)Nc4ccccc4N)sc3C2)cc1 [Example 5, Methyl 4-[({2-[(2-aminophenyl)carbamoyl]-6,7-dihydro[1,3]thiazolo[5,4-c]pyridin-5(4H)-yl}carbonyl)amino]benzoate] | ≥ 0.2 µM
Nc1ccccc1NC(=O)c1nc2c(s1)CN(C(=O)C(=O)Nc1ccc(N3CCOCC3)nc1)CC2 [Example 73, N-(2-aminophenyl)-5-{[(6-morpholin-4-ylpyridin-3-yl)amino](oxo)acetyl}-4,5,6,7-tetrahydro[1,3]thiazolo[5,4-c]pyridine-2-carboxamide] | ≥ 0.2 µM
CCN(C(=O)N1CCc2nc(C(=O)Nc3ccccc3N)sc2C1)C(C)C [Example 21, N^2-(2-aminophenyl)-N^5-ethyl-N^5-isopropyl-6,7-dihydro[1,3]thiazolo[5,4-c]-pyridine-2,5(4H)-dicarboxamide] | ≥ 0.2 µM
CN=C(Nc1ccc(OC)cc1)N1CCc2nc(C(=O)Nc3cc(OC)ccc3N)sc2C1 [Example 115, N-(2-amino-5-methoxyphenyl)-5-[[(4-methoxyphenyl)amino](methylimino)methyl]-4,5,6,7-tetrahydro[1,3]thiazolo[5,4-c]pyridine-2-carboxamide] | ≥ 0.2 µM
COC(=O)c1sccc1S(=O)(=O)N1CCc2nc(C(=O)Nc3ccccc3N)sc2C1 [Example 158, Methyl 3-({2-[(2-aminophenyl)carbamoyl]-6,7-dihydro[1,3]thiazolo[5,4-c]pyridin-5(4H)-yl}sulfonyl)thiophene-2-carboxylate] | ≥ 0.2 µM
COc1ccc(NC(=O)C(=O)N2CCc3nc(C(=O)Nc4cc(C(C)C)ccc4N)sc3C2)cc1 [Example 81, N-(2-amino-5-isopropylphenyl)-5-{[(4-methoxyphenyl)amino](oxo)acetyl}-4,5,6,7-tetrahydro[1,3]thiazolo[5,4-c]pyridine-2-carboxamide] | ≥ 0.2 µM
Nc1ccccc1NC(=O)c1nc2c(s1)CN(C(=C[N+](=O)[O-])Nc1ccccc1)CC2 [Example 136, N-(2-aminophenyl)-5-[1-anilino-2-nitroyinyl]-4,5,6,7-tetrahydro[1,3]thiazolo[5,4-c]pyridine-2-carboxamide] | ≥ 0.2 µM
COc1ccc(NC(=O)C(=O)N2CCc3nc(C(=O)Nc4cc(C(C)C)ccc4N)sc3C2)cc1OC [Example 80, N-(2-amino-5-isopropylphenyl)-5-{[(3,4-dimethoxyphenyl)amino](oxo)acetyl}-4,5,6,7-tetrahydro[1,3]thiazolo[5,4-c]pyridine-2-carboxamide] | ≥ 0.2 µM
COc1ccc(NC(=C[N+](=O)[O-])N2CCc3nc(C(=O)Nc4cc(OC)ccc4N)sc3C2)cc1 [Example 142, N-(2-amino-5-methoxyphenyl)-5-{1-[(4-methoxyphenyl)amino]-2-nitrovinyl}-4,5,6,7-tetrahydro[1,3]thiazolo[5,4-c]pyridine-2-carboxamide] | ≥ 0.2 µM
Nc1ccccc1NC(=O)c1nc2c(s1)CN(C(=O)Nc1ccc(OC(F)(F)F)cc1)CC2 [Example 9, N^2-(2-aminophenyl)-N5-[4-(trifluoromethoxy)phenyl]-6,7-dihydro[1,3]thiazolo[5,4-c]pyridine-2,5(4H)-dicarboxamide] | ≥ 0.2 µM
COc1ccc(NC(=C[N+](=O)[O-])N2CCc3nc(C(=O)Nc4ccccc4N)sc3C2)cc1 [Example 137, N-(2-aminophenyl)-5-{1-[(4-methoxyphenyl)amino]-2-nitroyinyl}-4,5,6,7-tetrahydro[1,3]thiazolo[5,4-c]pyridine-2-carboxamide] | ≥ 0.2 µM
CC(C)c1ccc(N)c(NC(=O)c2nc3c(s2)CN(C(=O)Nc2ccc(F)cc2)CC3)c1 [Example 52, N^2-(2-amino-5-isopropylphenyl)-N^5-(4-fluorophenyl)-6,7-dihydro[1,3]thiazolo[5,4-c]pyridine-2,5(4H)-dicarboxamide] | ≥ 0.2 µM
